{
  "source": "patent US20260184773A1",
  "about": "“THERAPEUTIC SINGLE DOMAIN ANTIBODY” (priority 2021, published 2026)",
  "key": {"12-Lipoxygenase": {"system": "12-Lipoxygenase", "assay": "Binding to irrelevant antigen"}, "MDA-MB-231 cells": {"system": "MDA-MB-231 cells", "assay": "Cell penetration by immunofluorescence/confocal microscopy", "type": "cell-based, human", "settings": "MDA-MB-231 cells, fluorescence microscopy"}, "[1]": {"system": "STAT3 in MDA-MB-231 cells", "assay": "Nuclear tSTAT3/pSTAT3 staining quantified by IFA/confocal", "type": "cell-based, human", "settings": "6-hour treatment, two-dimensional images, co-occurrence with DAPI", "method": "Immunofluorescence and Immunohistochemical Staining: Standard procedures were used for immunohistochemistry and immunofluorescence assay (IFA) staining. Primary antibodies for IF were: Anti-t-STAT3: (Cell Signaling Technology), Anti-p-STAT3: (Cell Signaling Technology), Anti-PD-L1: (Cell Signaling Technology), Anti-VHH Antibody: (Rockland), Alexa Fluor 488-Anti-rabbitIgG: (AFanti-rabIgG, Jackson ImmunoResearch). The blocking solution, 1° and 2° antibody diluent were 1% BP: (1% BSA in PBS). All cell incubations were at 37° C. in a 5% CO2 incubator in media. 4,500 cells/well were seeded in chamber slides allowed to adhere overnight.\nIFA: Wells were blocked for >30 minutes, blocking agent removed and primary antibodies were added at the following dilutions prior to overnight incubation at 5° C.: anti-VHH=1:500, anti-t-STAT3=1:300, anti-P-STAT3=1:125, anti-PD-L1=1:300. Wells were washed with PBS and incubated with AFanti-rabIgG (1:300) for >1 hour prior to washing with PBS, coverslipped and examined by fluorescent microscopy. […] Traditional fluorescence microscopy was performed using the Nikon 80i microscope and the appropriate wavelength filter. […]\nConfocal microscopy: The confocal images were obtained using the Leica TCS SP8 confocal microscope. Images were quantified using Fiji software. […]"}, "[2]": {"system": "tSTAT3, pSTAT3 and PD-L1 in MDA-MB-231 cells", "assay": "Immunoblot (slot blot) of tSTAT3, pSTAT3 and PD-L1", "type": "cell-based, human", "settings": "MDA-MB-231, 3, 6 and 24 hours, β-actin normalized, 50-100 ug/ml"}, "[3]": {"system": "HEK 293 IL-6 STAT3 reporter cell line", "assay": "STAT3 luciferase reporter assay after IL-6 stimulation", "type": "cell-based", "settings": "dose of 100 μg/mL", "method": "Promega Dual Luciferase Reporter Assay System […]: In this assay, a HEK 293 IL-6 STAT3 reporter cell line (Promega, Madison WI) was used to measure STAT3 transcriptional activity. In this cell line, induction with 40 ng/ml of IL-6 activates STAT3 transcription factors to drive luciferase reporter expression which can then be measured on a standard luminometer. […] IL-6 was added during the last 18 hours of incubation. […] At 48 hours, cells underwent lysis and luminescence measurements were made using a BMG Labtech microplate reader. Results are expressed as a percent of control wells (cells+IL-6).\nReporter cell assays were done to measure luciferase expression from HEK 293 cells transfected with a construct linking the STAT3 promoter to the luciferase gene."}, "Zika in Vero": {"system": "Zika in Vero", "type": "cell-based, Zika virus"}, "TC83 in HeLa": {"system": "TC83 in HeLa", "type": "cell-based, Venezuelan Equine Encephalitis (TC83) virus"}, "TC83 in BE3M27": {"system": "TC83 in BE3M27", "type": "cell-based, Venezuelan Equine Encephalitis (TC83) virus"}, "TC83 in U87MG": {"system": "TC83 in U87MG", "type": "cell-based, Venezuelan Equine Encephalitis (TC83) virus"}, "[4]": {"system": "VEGF production by retinal epithelial cells (ARPE-19)"}, "PANC-1 tumors": {"system": "PANC-1 tumors", "settings": "PANC-1 xenograft"}, "[5]": {"settings": "mice"}, "MDA-M-453": {"system": "MDA-M-453", "assay": "MTT assay"}, "BT474": {"system": "BT474", "assay": "MTT assay"}, "U87": {"system": "U87", "assay": "MTT assay"}, "HT-1080": {"system": "HT-1080", "assay": "MTT assay"}, "DU-145": {"system": "DU-145", "assay": "MTT assay"}, "[6]": {"system": "phosphorylated ERK1/2 in KRAS mutant cancer cells", "assay": "Western blot for phosphorylated ERK1/2", "settings": "MDA-MD-231 and PANC-1, 100 μg/ml for 72 hours"}},
  "data": [
    {"substance": "SBT-100: 15 kDa camelid single domain antibody (VHH), SEQ ID NO: 1, binds both STAT3 and KRAS", "values": [
      {"measurement": "Binding to irrelevant antigen", "setting": "12-Lipoxygenase", "result": "does not bind"},
      {"measurement": "Intracellular staining/localization of VHH", "setting": "MDA-MB-231 cells", "result": "exhibited intracellular localization"},
      {"measurement": "Original pSTAT3 staining remaining in the nucleus", "setting": "[1]", "result": 70, "unit": "%"},
      {"measurement": "Original tSTAT3 staining remaining in the nucleus", "setting": "[1]", "result": 41, "unit": "%"},
      {"measurement": "Levels of tSTAT3, pSTAT3 and PD-L1", "setting": "[2]", "result": "reduced levels"},
      {"measurement": "Reduction in IL-6 induced pSTAT3 binding to its DNA promotor", "setting": "[3]", "result": "~100", "unit": "%"},
      {"measurement": "EC50", "setting": "Zika in Vero", "result": 0.74, "unit": "µM"},
      {"measurement": "Comment", "setting": "TC83 in HeLa", "result": "Inhibits Venezuelan Equine"},
      {"measurement": "EC50", "setting": "TC83 in HeLa", "result": 0.665, "unit": "µM"},
      {"measurement": "Comment", "setting": "TC83 in BE3M27", "result": "Inhibits Venezuelan Equine"},
      {"measurement": "EC50", "setting": "TC83 in BE3M27", "result": 5.94, "unit": "µM"},
      {"measurement": "Comment", "setting": "TC83 in U87MG", "result": "Inhibits Venezuelan Equine"},
      {"measurement": "EC50", "setting": "TC83 in U87MG", "result": 2.53, "unit": "µM"},
      {"measurement": "Cell toxicity", "setting": "[4]", "result": "No cell toxicity was observed"},
      {"measurement": "Suppression of VEGF protein production", "setting": "[4]; 100 μg/ml, 12, 24, and 48-hour time points", "result": "> 99", "unit": "%"},
      {"measurement": "Deaths and weight loss", "setting": "PANC-1 tumors", "result": "No treated mice died or had any weight loss"},
      {"measurement": "% Inhibition of Control, Day 12", "setting": "PANC-1 tumors; intraperitoneal for 14 days, Day 12", "result": 20.7, "unit": "%"},
      {"measurement": "% Inhibition of Control, Day 15", "setting": "PANC-1 tumors; intraperitoneal for 14 days, Day 15", "result": 27.29, "unit": "%"},
      {"measurement": "% Inhibition of Control, Day 19", "setting": "PANC-1 tumors; intraperitoneal for 14 days, Day 19", "result": 18.37, "unit": "%"},
      {"measurement": "% Inhibition of Control, Day 22", "setting": "PANC-1 tumors; intraperitoneal for 14 days, Day 22 (end of the study)", "result": 19.17, "unit": "%"},
      {"measurement": "Time to cross the BBB", "setting": "mouse brain, staining in neurons and glial cells", "result": 15, "unit": "min"},
      {"measurement": "Crossing of the blood brain barrier by IHC", "setting": "once IP 5 mg/kg, fifteen minutes, mice with MDA-MB-231 tumors", "result": "crosses the blood brain barrier"},
      {"measurement": "Serum half-life", "setting": "[5]", "result": 1, "unit": "h"},
      {"measurement": "Optical Coherence Tomography (OCT)", "setting": "EAU mice; day 15, optic nerve head and vitreous", "result": "reduced recruitment of inflammatory cells"},
      {"measurement": "IL-17 secreting pathogenic Th17 cells (intracellular cytokine staining, FACS)", "setting": "EAU mice; day 18", "result": "significant reduction"},
      {"measurement": "EAU clinical scores by fundoscopy", "setting": "EAU mice; injected into the eye, day 15 and 18", "result": "decreased"},
      {"measurement": "Electroretinography (ERG)", "setting": "EAU mice; mouse, in vivo", "result": "improved visual function"},
      {"measurement": "IC50", "setting": "MDA-M-453; MDA-M-453", "result": 1.19, "unit": "µM"},
      {"measurement": "% Inhibition in 3 days with SBT-100 (SEQ ID NO: 1) ug/ml or 6.7 uM)", "setting": "MDA-M-453; MDA-M-453, 3 days, 6.7 uM", "result": "64% (P < 0.001)"},
      {"measurement": "IC50", "setting": "BT474; BT474", "result": 1.68, "unit": "µM"},
      {"measurement": "% Inhibition in 3 days with SBT-100 (SEQ ID NO: 1) ug/ml or 6.7 uM)", "setting": "BT474; BT474, 3 days, 6.7 uM", "result": "93% (P < 0.001)"},
      {"measurement": "IC50", "setting": "U87; U87", "result": 4.32, "unit": "µM"},
      {"measurement": "% Inhibition in 3 days with SBT-100 (SEQ ID NO: 1) ug/ml or 6.7 uM)", "setting": "U87; U87, 3 days, 6.7 uM", "result": "62% (P < 0.001)"},
      {"measurement": "IC50", "setting": "HT-1080; HT-1080", "result": 2.13, "unit": "µM"},
      {"measurement": "% Inhibition in 3 days with SBT-100 (SEQ ID NO: 1) ug/ml or 6.7 uM)", "setting": "HT-1080; HT-1080, 3 days, 6.7 uM", "result": "86% (P < 0.001)"},
      {"measurement": "IC50", "setting": "DU-145; DU-145", "result": 1.46, "unit": "µM"},
      {"measurement": "% Inhibition in 3 days with SBT-100 (SEQ ID NO: 1) ug/ml or 6.7 uM)", "setting": "DU-145; DU-145, 3 days, 6.7 uM", "result": "92% (P < 0.001)"},
      {"measurement": "Downstream phosphorylation of ERK (PERK)", "setting": "[6]", "result": "inhibited"}
    ]}
  ]
}
